# Measurements as given in ChEMBL document CHEMBL1201862, “PubChem BioAssay data set” (2004).
# Values joined by “and” are separate entries in the source; they are usually repeats but may differ in a detail not shown here. Identical values can stand only once. Counter-ions that a name gives are not always drawn. Active and inactive are the calls of the source.
# Legend:
# Cytochrome P450 2C9 = Cytochrome P450 2C9 (Homo sapiens, UniProt P11712)
# Cytochrome P450 3A4 = Cytochrome P450 3A4 (Homo sapiens, UniProt P08684);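 further: CYP3A4 tested as one member of a cytochrome P450 panel screen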
# Chain of Cytochrome P450 3A4 (P08684 whole entry): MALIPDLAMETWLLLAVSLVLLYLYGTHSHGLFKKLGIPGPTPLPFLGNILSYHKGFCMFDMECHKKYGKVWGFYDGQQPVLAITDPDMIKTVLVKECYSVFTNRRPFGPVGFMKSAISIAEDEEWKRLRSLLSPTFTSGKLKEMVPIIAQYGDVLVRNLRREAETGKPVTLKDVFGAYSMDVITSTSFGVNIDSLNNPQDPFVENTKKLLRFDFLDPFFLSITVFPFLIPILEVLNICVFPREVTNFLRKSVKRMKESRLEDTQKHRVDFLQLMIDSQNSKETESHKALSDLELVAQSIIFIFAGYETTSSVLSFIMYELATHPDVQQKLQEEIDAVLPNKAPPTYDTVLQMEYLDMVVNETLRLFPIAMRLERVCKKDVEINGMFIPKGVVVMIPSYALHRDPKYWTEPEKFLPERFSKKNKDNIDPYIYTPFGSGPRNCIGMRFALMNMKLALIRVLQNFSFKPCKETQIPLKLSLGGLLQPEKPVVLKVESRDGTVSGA
# Cytochrome P450 2D6 = Cytochrome P450 2D6 (Homo sapiens, UniProt P10635);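 further: CYP2D6 member of a cytochrome P450 panel assay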
# Chain of Cytochrome P450 2D6 (P10635 whole entry): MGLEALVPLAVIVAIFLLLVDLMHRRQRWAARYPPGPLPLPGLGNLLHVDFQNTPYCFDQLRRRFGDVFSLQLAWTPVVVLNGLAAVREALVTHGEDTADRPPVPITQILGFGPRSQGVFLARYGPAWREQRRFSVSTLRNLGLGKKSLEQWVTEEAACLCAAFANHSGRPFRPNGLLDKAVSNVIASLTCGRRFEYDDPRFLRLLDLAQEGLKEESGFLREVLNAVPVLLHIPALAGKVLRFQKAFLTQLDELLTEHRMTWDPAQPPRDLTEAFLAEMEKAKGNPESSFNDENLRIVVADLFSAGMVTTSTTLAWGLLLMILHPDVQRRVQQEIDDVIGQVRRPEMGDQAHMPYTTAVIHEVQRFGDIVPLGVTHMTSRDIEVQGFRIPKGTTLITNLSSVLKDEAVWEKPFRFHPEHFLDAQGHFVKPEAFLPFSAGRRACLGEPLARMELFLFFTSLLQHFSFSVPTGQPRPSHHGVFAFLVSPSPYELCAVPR
# Cytochrome P450 2C19 = Cytochrome P450 2C19 (Homo sapiens, UniProt P33261); experiment: Cytochrome panel assay with activity outcomes. Panel member name: p450-cyp2c19 Compounds with AC50 equal or less than 10 uM are considered active; type: functional; conditions: read-out: AC50
# Chain of Cytochrome P450 2C19 (P33261 whole entry): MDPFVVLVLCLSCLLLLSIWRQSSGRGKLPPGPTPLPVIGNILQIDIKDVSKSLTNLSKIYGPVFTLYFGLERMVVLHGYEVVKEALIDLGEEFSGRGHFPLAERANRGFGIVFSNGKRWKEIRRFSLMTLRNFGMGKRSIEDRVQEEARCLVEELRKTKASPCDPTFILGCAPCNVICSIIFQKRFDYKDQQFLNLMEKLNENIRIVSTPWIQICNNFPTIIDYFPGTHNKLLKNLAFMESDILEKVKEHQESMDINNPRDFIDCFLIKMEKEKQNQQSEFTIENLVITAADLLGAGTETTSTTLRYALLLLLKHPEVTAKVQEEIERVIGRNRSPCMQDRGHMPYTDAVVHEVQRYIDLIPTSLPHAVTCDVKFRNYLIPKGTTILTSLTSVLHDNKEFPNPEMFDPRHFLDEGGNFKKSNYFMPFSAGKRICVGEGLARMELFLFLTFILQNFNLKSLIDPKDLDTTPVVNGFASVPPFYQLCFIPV
# Cytochrome P450 1A2 = molecular target: T1, Cytochrome P450 1A2 (Homo sapiens, UniProt P05177);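 further: PubChem cytochrome P450 panel assay, CYP1A2 panel member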
# T1 sequence (P05177 whole entry): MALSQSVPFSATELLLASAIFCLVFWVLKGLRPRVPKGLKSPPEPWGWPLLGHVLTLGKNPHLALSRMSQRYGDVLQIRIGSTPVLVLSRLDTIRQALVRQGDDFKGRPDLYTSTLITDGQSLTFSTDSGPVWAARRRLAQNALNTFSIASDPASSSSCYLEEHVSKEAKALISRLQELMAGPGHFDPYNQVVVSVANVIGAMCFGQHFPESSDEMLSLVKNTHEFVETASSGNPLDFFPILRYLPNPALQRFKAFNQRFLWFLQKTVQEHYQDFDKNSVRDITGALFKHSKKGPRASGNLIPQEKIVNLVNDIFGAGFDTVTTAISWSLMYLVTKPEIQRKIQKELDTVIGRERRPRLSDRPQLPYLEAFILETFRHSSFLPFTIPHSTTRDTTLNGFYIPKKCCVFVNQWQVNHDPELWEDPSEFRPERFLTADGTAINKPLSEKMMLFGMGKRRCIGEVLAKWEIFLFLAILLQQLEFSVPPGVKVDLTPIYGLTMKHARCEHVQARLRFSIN
# P388/ADR = experiment: cells; type: functional; conditions: Mus musculus
# P388 = experiment: cells; type: functional; conditions: Mus musculus
# SN12K1 = experiment: cells; type: functional; conditions: Homo sapiens
# [1] = molecular target: T2, Polyadenylate-binding protein 1 (Homo sapiens, UniProt P11940); experiment: PABP1 MLLE–PAM2 interaction inhibitors, dose response, miRNA deadenylation inhibitor project, biochemical, fluorescence polarization, Cy5-PAM2 peptide, secondary (AID 602260); type: functional; conditions: read-out: IC50_Mean
# T2 sequence (P11940 whole entry): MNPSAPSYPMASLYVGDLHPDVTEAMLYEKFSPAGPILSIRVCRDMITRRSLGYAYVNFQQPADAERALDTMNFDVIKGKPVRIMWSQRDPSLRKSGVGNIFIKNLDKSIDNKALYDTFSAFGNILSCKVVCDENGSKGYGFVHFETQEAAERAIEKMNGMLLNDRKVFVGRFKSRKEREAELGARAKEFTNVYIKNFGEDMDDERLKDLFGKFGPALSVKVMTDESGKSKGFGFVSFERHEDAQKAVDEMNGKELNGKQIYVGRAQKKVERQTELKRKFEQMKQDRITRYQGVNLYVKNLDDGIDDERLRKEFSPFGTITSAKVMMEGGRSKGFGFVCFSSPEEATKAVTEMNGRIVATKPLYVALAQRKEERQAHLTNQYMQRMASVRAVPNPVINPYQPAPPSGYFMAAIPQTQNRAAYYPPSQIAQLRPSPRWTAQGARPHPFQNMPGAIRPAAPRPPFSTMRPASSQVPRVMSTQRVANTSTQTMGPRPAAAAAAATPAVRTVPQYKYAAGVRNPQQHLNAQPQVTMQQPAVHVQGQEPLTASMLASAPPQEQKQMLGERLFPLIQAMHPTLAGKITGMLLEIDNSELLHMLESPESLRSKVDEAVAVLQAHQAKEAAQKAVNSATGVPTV
# [2] = molecular target: T2, Polyadenylate-binding protein 1; experiment: PABP1 MLLE–PAM2 binding inhibitor potency, dose response, biochemical, fluorescence polarization, FITC-PAM2 peptide (AID 602259); type: functional; conditions: read-out: IC50_Mean
# [3] = Luminescence Cell-Based Dose Response HTS to Identify Activators of Luciferase Translation or Activity in H4 […] Cells. [Related pubchem assays: 1829 (Project Summary), 1814 (Primary HTS)]; type: functional
# [4] = Luminescence Cell-Based Dose Confirmation HTS to Identify Activators of 5'UTR Stem-Loop Driven Alpha-Synuclein mRNA Translation in H4 Neuroglioblastoma Cells. [Related pubchem assays: 1829 (Project Summary), 1814 (Primary HTS)]; type: functional
# H4 = experiment: Luminescence Cell-Based Dose Response HTS to Identify Activators of 5'UTR Stem-Loop Driven Prion Protein mRNA Translation in H4 Neuroglioblastoma Cells. [Related pubchem assays: 1829 (Project Summary), 1814 (Primary HTS)]; type: functional; conditions: Homo sapiens
# Chain of Cytochrome P450 2C9 (P11712 whole entry): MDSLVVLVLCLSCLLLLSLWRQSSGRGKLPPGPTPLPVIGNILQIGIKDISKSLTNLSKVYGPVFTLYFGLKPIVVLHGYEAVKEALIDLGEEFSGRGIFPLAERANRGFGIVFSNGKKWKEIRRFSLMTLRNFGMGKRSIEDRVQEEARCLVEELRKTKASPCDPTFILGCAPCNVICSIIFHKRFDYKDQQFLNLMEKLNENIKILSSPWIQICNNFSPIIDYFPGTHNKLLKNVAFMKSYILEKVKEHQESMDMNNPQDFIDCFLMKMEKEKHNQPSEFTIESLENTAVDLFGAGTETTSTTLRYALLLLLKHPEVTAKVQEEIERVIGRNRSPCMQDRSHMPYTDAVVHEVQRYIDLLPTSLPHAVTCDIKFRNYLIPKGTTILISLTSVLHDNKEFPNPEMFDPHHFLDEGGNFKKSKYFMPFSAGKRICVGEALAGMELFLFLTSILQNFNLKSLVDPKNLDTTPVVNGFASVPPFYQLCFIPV
structure (smiles),measurement,setting,value
NNCCc1ccccc1 [PHENELZINE],AC50,Cytochrome P450 2C9,158 nM (inconclusive) and 10 µM (inconclusive)
NC(=O)CN1CCN(c2nc(-c3ccc(F)cc3)cs2)CC1,AC50,Cytochrome P450 3A4,14.1 µM (inconclusive)
same,AC50,Cytochrome P450 2C9,6.31 µM (inconclusive)
CCNc1ncc2nc(-c3cccs3)c(=O)n(CCC#N)c2n1,AC50,Cytochrome P450 2C9,12.6 µM (inconclusive)
COc1ccc(CNc2nc(-c3cccc(C#N)c3)nc3ccccc23)c(OC)c1,AC50,Cytochrome P450 2D6,3.98 µM (inconclusive)
same,AC50,Cytochrome P450 2C9,1 µM (inconclusive)
same,AC50,Cytochrome P450 2C19,1.58 µM (inconclusive)
CCCCCC1CCC(C(=O)NN=C(S)NCC)CC1 (configuration not stated),AC50,Cytochrome P450 2D6,15.8 µM (inconclusive)
same,AC50,Cytochrome P450 2C9,1.78 µM (inconclusive)
same,AC50,Cytochrome P450 1A2,12.6 µM (inconclusive)
COCCn1c(=O)c(-c2cc(F)cc(F)c2)nc2cnc(Oc3ccccc3)nc21,AC50,Cytochrome P450 3A4,20 µM (inconclusive)
same,AC50,Cytochrome P450 2C9,20 µM (inconclusive)
same,AC50,Cytochrome P450 2C19,39.8 µM (inconclusive)
CC(C)NCCCOc1ccc(Cl)cc1Br,AC50,Cytochrome P450 2C9,4.47 µM (inconclusive)
COC(=O)c1cc(OC)c(OC)cc1NC(=O)CSc1ccc(C)cc1,AC50,Cytochrome P450 2C9,7.94 µM (inconclusive)
CCSc1nc(COC(=O)NC)c(COC(=O)NC)n1C,GI50,P388/ADR,> 100 µM (inactive)
same,GI50,P388,67.6 µM (inactive)
same,GI50,SN12K1,> 100 µM (inactive)
Cc1cc(C)c[n+](-c2[n-]c(=O)sc2C=NNC(=O)c2cccnc2)c1,IC50,[1],> 66 µM (inactive)
same,IC50,[2],59.7 µM (inactive)
O=C1C(Br)=CC2(C=C1Br)CCNC1=C2C2=NCCc3c[nH]c(c32)C1=O,GI50,P388/ADR,0.0162 µM (active)
same,GI50,P388,0.0146 µM (active)
same,GI50,SN12K1,0.168 µM (active)
O=C1CN=C(Nc2ccc(Cl)cc2)N1c1ccccc1,AC50,Cytochrome P450 3A4,14.1 µM (inconclusive)
same,AC50,Cytochrome P450 2D6,20 µM (inconclusive)
same,AC50,Cytochrome P450 2C9,0.00562 µM (inconclusive)
same,AC50,Cytochrome P450 1A2,14.1 µM (inconclusive)
CN(Cc1ccc(Cl)cc1)C(=O)COC(=O)CSc1ccc([N+](=O)[O-])cc1,IC50,[1],> 66 µM (inactive)
same,IC50,[2],> 66 µM (inactive)
C=CCNC(SCC(=O)c1ccc(Cl)cc1)=C1C(=O)N(C)C(=O)N(C)C1=O,EC50,[3],> 120 µM (not active)
same,EC50,[4],24.9 µM (active)
same,EC50,H4,19.5 µM (active)
C/C(=N/NC(=O)c1ccoc1C)c1ccc(NC(=O)c2ccncc2)cc1,EC50,[3],0.148 µM (inconclusive)
same,EC50,[4],23.9 µM (active)
same,EC50,H4,0.102 µM (active)
CCCC[C@@H]1C[C@H]1C(NC(=O)c1ccco1)c1ccccc1 (some centres not stated),AC50,Cytochrome P450 3A4,20 µM (inconclusive)
same,AC50,Cytochrome P450 2D6,39.8 µM (inconclusive)
CCCOC1CCCN(C(=O)CCc2nnc(Cc3cccc(C)c3)o2)C1 (configuration not stated),EC50,[3],16.5 µM (active)
same,EC50,[4],9.73 µM (active)
same,EC50,H4,16.5 µM (inconclusive)
CSCSCC(CO)NC(=O)/C=C\c1c(C)[nH]c(=O)[nH]c1=O (configuration not stated),GI50,P388/ADR,57.4 µM (inactive)
same,GI50,P388,23.1 µM (inactive)
same,GI50,SN12K1,11.1 µM (inactive)
O=C(Nc1nc2c(F)cc(F)cc2s1)C1CCN(C(=O)c2ccc(F)cc2)CC1,EC50,[3],8.78 µM (active)
same,EC50,[4],3.61 µM (active)
same,EC50,H4,26.8 µM (active)
CC(=O)OC1C=C(C=O)C(O)(C=O)C2(C)CCCC(C)(C)C12 (configuration not stated),GI50,P388/ADR,0.322 µM (active)
same,GI50,P388,0.142 µM (active)
same,GI50,SN12K1,1.36 µM (inactive)
COc1cccc(NC(=O)CCC(=O)Nc2ccc3nc(N4CCOCC4)cc(C)c3c2)c1,EC50,[3],> 120 µM (not active)
same,EC50,[4],> 120 µM (not active)
same,EC50,H4,> 120 µM (not active)
CC12CCC(C(=O)Nc3nc4ccccc4s3)(OC1=O)C2(C)C (configuration not stated),EC50,[3],18.9 µM (active)
same,EC50,[4],> 60 µM (not active)
same,EC50,H4,12.7 µM (active)
CCOC(=O)C1CCN(c2c(Nc3ccc4c(c3)OCCO4)c(=O)c2=O)CC1,EC50,[3],18 µM (active)
same,EC50,[4],18.9 µM (active)
same,EC50,H4,9.87 µM (active)
CCC(=O)Nc1ccc(Cl)c(NC(=S)NC(=O)COc2ccccc2)c1,IC50,[1],> 66 µM (inactive)
same,IC50,[2],> 66 µM (inactive)
C=CCSc1nc2c(c(=O)[nH]c(=O)n2C)n1C(C)C,IC50,[1],> 66 µM (inactive)
same,IC50,[2],> 66 µM (inactive)
CC1=C(C(=O)N2CCCCCC2)C2(CCC(C)CC2)OC1=O (configuration not stated),AC50,Cytochrome P450 2C9,28.2 µM (inconclusive)
same,AC50,Cytochrome P450 1A2,0.0158 µM (inconclusive)
S=C(N=Nc1ccccc1)NNc1ccccc1,EC50,[3],14.1 µM (active)
same,EC50,[4],14.4 µM (active)
same,EC50,H4,27.9 µM (inconclusive)
CCCCCCCCC1=CCC(CN(C)C)C1=O (configuration not stated),GI50,P388/ADR,2.92 µM (inactive)
same,GI50,P388,4.29 µM (inactive)
same,GI50,SN12K1,17.6 µM (inactive)
CNC(=O)CSP(=S)(OC)OC [DIMETHOATE],IC50,[1],> 66 µM (inactive)
same,IC50,[2],> 66 µM (inactive)
CC(=O)N(C)c1ccc(Nc2cc(C)nc3ccc4nc[nH]c4c23)cc1 [ACODAZOLE HYDROCHLORIDE],GI50,P388/ADR,37 µM (inactive)
same,GI50,P388,4.5 µM (inactive)
same,GI50,SN12K1,4.9 µM (inactive)
O=C(c1csnn1)N1CCC2(CC1)CCN(c1ncccn1)CC2,AC50,Cytochrome P450 2D6,39.8 µM (inconclusive)
N/C(=N\O)N/N=C\c1ccccc1O,GI50,P388/ADR,1.54 µM (inactive)
same,GI50,P388,1.66 µM (inactive)
same,GI50,SN12K1,3.91 µM (inactive)
C[C@H]1CN(C2CCC(C#N)(c3ccc(F)cc3)CC2)CC[C@@]1(C(=O)O)c1ccccc1 (some centres not stated),AC50,Cytochrome P450 2D6,10 µM (inconclusive)
CCn1c(Cc2ccccc2)nnc1SCC(=O)NC(C)(C)C,AC50,Cytochrome P450 2C9,12.6 µM (inconclusive)
same,AC50,Cytochrome P450 2C19,14.1 µM (inconclusive)
O=C1C=CC2OC(c3ccccc3)C(O)C2O1 (configuration not stated),GI50,P388/ADR,1.16 µM (inactive)
same,GI50,P388,1.56 µM (inactive)
same,GI50,SN12K1,4.6 µM (inactive)
CN(Cc1ccccc1)S(=O)(=O)c1ccc(NC(=S)NC(=O)C(C)(C)C)cc1,IC50,[1],> 66 µM (inactive)
same,IC50,[2],> 66 µM (inactive)
CCC/C=C(\CCC)C(NS(C)(=O)=O)c1ccccc1 (configuration not stated),AC50,Cytochrome P450 3A4,31.6 µM (inconclusive)
same,AC50,Cytochrome P450 2D6,39.8 µM (inconclusive)
same,AC50,Cytochrome P450 1A2,25.1 µM (inconclusive)
CC(C)=CCc1c(O)ccc2ccc(=O)oc12 [OSTHENOL],GI50,P388/ADR,50 µM (inactive)
same,GI50,P388,42.7 µM (inactive)
same,GI50,SN12K1,59.7 µM (inactive)
O=C(Nc1cc(C(F)(F)F)ccc1Cl)c1cc2nc3c(c(C(F)(F)F)n2n1)CCCC3,EC50,[3],0.365 µM (active)
same,EC50,[4],1.53 µM (active)
same,EC50,H4,0.195 µM (active)
NC(=S)Nc1ccc(S(=O)(=O)c2ccc(NC(N)=S)cc2)cc1,IC50,[1],> 66 µM (inactive)
same,IC50,[2],> 66 µM (inactive)
Cc1noc(C)c1C(=O)N1CCC2(CCCN(c3ccccc3)C2)CC1,AC50,Cytochrome P450 3A4,15.8 µM (inconclusive)
same,AC50,Cytochrome P450 2D6,12.6 µM (inconclusive)
O=C(NC(=S)N1C[C@H]2C[C@H](C1)c1cccc(=O)n1C2)c1ccc(Cl)cc1,IC50,[1],> 66 µM (inactive)
same,IC50,[2],> 66 µM (inactive)
CCN(CCCl)CCNc1c2ccccc2nc2ccc(OC)cc12,GI50,P388/ADR,0.29 µM (active)
same,GI50,P388,0.0757 µM (active)
same,GI50,SN12K1,0.647 µM (active)
N#C[C@H](c1ccccc1)N1CCCN([C@@H](C#N)c2ccccc2)[C@H]1c1ccccc1O,AC50,Cytochrome P450 2D6,5.01 µM (inconclusive)
Oc1ccc(Br)cc1/C=N/n1cnc2ccccc21,EC50,[3],15.8 µM (active)
same,EC50,[4],11 µM (active)
same,EC50,H4,17.9 µM (active)
COC(=O)[C@@H](O)[C@](O)(CCC(C)C)C(=O)O[C@@H]1C(OC)=C[C@]23CCCN2CCc2cc4c(cc2[C@H]13)OCO4,GI50,P388/ADR,2.29 µM (inactive)
same,GI50,P388,0.247 µM (active)
same,GI50,SN12K1,0.682 µM (active)
